The target of experiment [1] is T1, PDE4D5 (Homo sapiens, UniProt Q08499).
T1 construct: Using Full-Length Human PDE4 Isoforms: Long Forms PDE4D5, PDE4C3, PDE4B1 and Short Form PDE4B2; made in house; cytosol fraction of the cell lysate, not purified
As to the kind of experiment: PDE assay, activation of full-length human PDE4D5 long form ([3H]cAMP radio-assay). Conditions: 30 μM test compound; mean % increase in counts over basal activity. It counts as biochemical. From the text: (§1) Experiment 1: Measurement of Modulation of Enzyme Activity by PDE4 Long Form Activators of the Present Invention Using Full-Length Human PDE4 Isoforms: Long Forms PDE4D5, PDE4C3, PDE4B1 and Short Form PDE4B2
(§2) (Marchmont, R. J. and Houslay, M. D. Biochem. J. 187: 381-92, 1980)
For transient transfection of exogenous PDE4 long isoforms, HEK 293 cells were transfected with pcDNA3.1 or pDEST™ PDE4 expression vectors using Lipofectamine LTX/Plus reagent (Invitrogen) as outlined by the manufacturer.
Where stable cell lines were generated the clonal isolates were expanded to obtain cell lines that stably expressed the full-length human PDE4 long isoforms and the full length human PDE4B2 short isoform. These were called the HEK-PDE4D5, HEK-PDE4B1 and HEK-PDE4B2 cell lines, respectively.
(§3) HEK-PDE4D5 cells were seeded out in 100 mm plates and incubated at 37° C. in an atmosphere of 5% CO2, 95% air. Cell lysates were prepared using KHEM buffer [50 mM KCl, 10 mM EGTA, 50 mM HEPES (pH 7.2), 1.92 mM MgCl2].
(§4) To prepare the cell lysates, the 100 mm plates containing the cells were placed on ice and washed with ice-cold PBS (phosphate buffered saline, pH 7.4). KHEM buffer (500 μl) was added to the cells. Cells were then scraped off the plate and triturated using a needle (BD Microlance™ 0.8, 40 mm). The lysed cells were then centrifuged at 2000 rpm for 10 minutes to remove cell debris and the supernatant (cell lysate containing recombinant PDE4D5) was transferred to a fresh tube and kept on ice.
(§5) The cell lysate containing recombinant PDE4D5 was transferred into a centrifuge tube and placed into an ultracentrifuge (BECKMAN COULTER) and spun at high speed (100,000 g) for 30 minutes at 4° C. The cytosol fraction was then collected and its protein amount determined using a BCA protein assay.
(§6) PDE assays were performed in thin walled V-bottomed 96-well plates. The assays were performed at a final concentration of 10 mM Tris/5 mM MgCl2 μlus PDE4D5 cell lysate cytosol fraction, containing over-expressed PDE4D5, with and without test compound. The lysate/compound mix were incubated together for 15 min at room temperature on an orbital shaker prior to addition of [^3H] cAMP (final concentration 1 μM [^3H] cAMP; Perkin Elmer) to a final volume of 50 μl per reaction. The reactions were then incubated for 10 minutes at 30° C., terminated by heating for 2 min at 95° C. and allowed to cool. Snake venom (12.5 μl of 1 mg/ml; Crotalus atrox, Sigma) was then added and the plates were agitated and incubated for a further 15 minutes at 30° C. Dowex ion exchange resin (Sigma, chloride form, 200-400 mesh; 200 μl; prepared as a 1:1 Dowex: water stock, thoroughly re-suspended and diluted 2:1 with ethanol) was then added to each well and the plates incubated for 15 min at room temperature on an orbital shaker ensuring sufficient agitation for resin suspension (550 RPM). The reaction mixture was then transferred to a 96 well filter plate (Millipore; […] pore size) and filtered into a receiving 96-well plate to remove the dowex suspension. 30 μL of the filtered solution was then transferred to the wells of an Opti-plate (Perkin Elmer) 96 well assay plate and 120 μl of Microscint 40 scintillation fluid was added. The plate was then placed on an orbital shaker for 10 min at high speed (900 RPM) to mix the sample with scintillation fluid prior to quantitation using a plate based scintillation counter (Top-Count).
(§7) The % increase in counts in the presence of test compound at a particular concentration indicates the % increase in enzyme activity at that concentration.

For experiment [2], the system named is m-IMCD3 cells. As to the kind of experiment: Inhibition of PGE2-stimulated in vitro cyst formation in 3D culture of m-IMCD3 cells. The class given is cell-based, mouse. Conditions: Mus musculus, mIMCD3, 144 h; 10 μM test compound; mean cyst area (%) compared to 100% for (DMSO + PGE2) and 0% for DMSO control; 100 nM PGE2; 6 days; read-out: % Cyst area after incubation with 10 μM test compound. The method, boiled down: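 Mouse m-IMCD3 cells grown in 3D collagen I/Matrigel gels. From 18-24 h after plating, compound (0.1% DMSO) plus 100 nM PGE2 were added and replenished at 2-3 days. After 6 days, imaging gave mean cyst area, scaled to 100% for DMSO+PGE2 and 0% for DMSO alone.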

In experiment [3] the target is T2, PDE4C3 (Homo sapiens, UniProt Q08493).
T2 construct: Using Full-Length Human PDE4 Isoforms: Long Forms PDE4D5, PDE4C3, PDE4B1 and Short Form PDE4B2; made in house; host or cells: HEK 293 transfected with pcDNA3.1 or pDEST PDE4 expression vector; cytosol fraction of the lysate by analogy to PDE4D5
Kind of experiment: PDE assay, activation of full-length human PDE4C3 long form ([3H]cAMP radio-assay). It counts as biochemical. Conditions: 30 μM test compound; mean % increase in counts over basal activity.
Excerpt: as §1, §2
For transient transfection of exogenous PDE4 long isoforms, HEK 293 cells were transfected with pcDNA3.1 or pDEST™ PDE4 expression vectors using Lipofectamine LTX/Plus reagent (Invitrogen) as outlined by the manufacturer. […]
as §3, §4, §5, §6, §7

The structures appear in SMILES notation.

T1 sequence (Q08499 1-745 isoform Q08499-6): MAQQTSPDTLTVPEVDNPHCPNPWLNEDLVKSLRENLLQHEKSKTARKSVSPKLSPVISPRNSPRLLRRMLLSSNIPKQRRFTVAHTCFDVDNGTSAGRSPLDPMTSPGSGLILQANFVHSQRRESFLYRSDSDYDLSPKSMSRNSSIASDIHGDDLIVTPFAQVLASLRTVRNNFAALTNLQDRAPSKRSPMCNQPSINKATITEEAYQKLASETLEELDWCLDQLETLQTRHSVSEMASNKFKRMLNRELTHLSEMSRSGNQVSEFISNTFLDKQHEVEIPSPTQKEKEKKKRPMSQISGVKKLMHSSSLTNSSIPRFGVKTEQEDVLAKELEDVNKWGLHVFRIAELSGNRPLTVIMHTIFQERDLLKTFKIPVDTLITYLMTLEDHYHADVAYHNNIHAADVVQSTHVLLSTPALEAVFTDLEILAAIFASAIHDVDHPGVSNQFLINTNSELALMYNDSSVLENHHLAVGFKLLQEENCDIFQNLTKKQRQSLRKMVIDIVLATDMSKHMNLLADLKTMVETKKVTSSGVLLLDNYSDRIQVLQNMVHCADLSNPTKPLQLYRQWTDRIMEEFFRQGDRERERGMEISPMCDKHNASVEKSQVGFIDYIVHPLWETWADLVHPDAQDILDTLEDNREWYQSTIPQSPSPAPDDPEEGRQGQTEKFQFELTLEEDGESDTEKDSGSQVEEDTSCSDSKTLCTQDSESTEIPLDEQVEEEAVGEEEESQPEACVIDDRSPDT
T2 sequence (Q08493 1-680 isoform Q08493-3): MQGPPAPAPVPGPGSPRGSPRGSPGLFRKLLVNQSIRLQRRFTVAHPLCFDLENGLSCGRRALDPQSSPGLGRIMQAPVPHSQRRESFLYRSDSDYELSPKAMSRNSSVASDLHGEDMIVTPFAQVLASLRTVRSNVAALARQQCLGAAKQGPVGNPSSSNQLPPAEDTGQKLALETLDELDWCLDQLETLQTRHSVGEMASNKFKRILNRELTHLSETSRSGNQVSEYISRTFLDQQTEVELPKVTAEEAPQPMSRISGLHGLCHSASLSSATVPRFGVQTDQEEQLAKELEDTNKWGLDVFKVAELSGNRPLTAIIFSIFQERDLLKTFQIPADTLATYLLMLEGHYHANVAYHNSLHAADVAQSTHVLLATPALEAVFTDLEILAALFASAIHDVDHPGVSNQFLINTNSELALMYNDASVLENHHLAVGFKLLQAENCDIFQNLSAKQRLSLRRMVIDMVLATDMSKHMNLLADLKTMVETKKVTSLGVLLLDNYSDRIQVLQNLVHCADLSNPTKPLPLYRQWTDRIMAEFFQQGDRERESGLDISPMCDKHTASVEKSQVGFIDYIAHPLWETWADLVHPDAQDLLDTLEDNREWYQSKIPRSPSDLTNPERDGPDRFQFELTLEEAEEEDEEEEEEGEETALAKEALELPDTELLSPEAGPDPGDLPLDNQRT

`O=C(N[C@H]1CCOc2ccccc21)c1ccc2nc(-c3ccc(C(F)(F)F)nc3)sc2c1` [Example 25, (S)-N-(chroman-4-yl)-2-(6-(trifluoromethyl)pyridin-3-yl)benzo[d]thiazole-6-carboxamide]: the activation at 30 µM in experiment [1] was 37%. Also, in experiment [2], the activity at 10 µM worked out at 23%.
For the compound `CC(C)c1cncc(-c2nc3ccc(C(=O)N[C@H]4CCOc5ccccc54)cc3s2)c1` [Example 49, (S)-N-(chroman-4-yl)-2-(5-isopropylpyridin-3-yl)benzo[d]thiazole-6-carboxamide], the activation at 30 µM in experiment [1] is 131%. Also, the activity at 10 µM in experiment [2] was found to be 9%.
Regarding `Cc1cncc(-c2nc3ccc(C(=O)NCc4ccc(Cl)cc4)cc3s2)c1` [Example 31, N-(4-chlorobenzyl)-2-(5-methylpyridin-3-yl)benzo[d]thiazole-6-carboxamide], the activation at 30 µM in experiment [3] turned out to be 76%.
Take `Cc1cnccc1-c1nc2ccc(C(=O)N[C@H]3CCOc4ccccc43)cc2s1` [Example 55, (S)-N-(chroman-4-yl)-2-(3-methylpyridin-4-yl)benzo[d]thiazole-6-carboxamide]: the activation at 30 µM in experiment [1] is 49%. Further, the activity at 10 µM in experiment [2] came out at 18%.
Compound `Cc1cncc(-c2nc3ccc(C(=O)NC4CCOCC4)cc3s2)c1` [Example 46, 2-(5-methylpyridin-3-yl)-N-(tetrahydro-2H-pyran-4-yl)benzo[d]thiazole-6-carboxamide] registered an activation at 30 µM in experiment [3] of 71%.
Regarding `Cc1ncccc1-c1nc2ccc(C(=O)NCc3ccc(Cl)cc3)cc2s1` [Example 1, N-(4-chlorobenzyl)-2-(2-methylpyridin-3-yl)benzo[d]thiazole-6-carboxamide], the activation at 30 µM in experiment [1] came out at 48%. Also, in experiment [2], the activity at 10 µM was -7%.
For `Cc1nn(C)cc1-c1nc2ccc(C(=O)N[C@H]3CCOc4ccccc43)cc2s1` [Example 61, (S)-N-(chroman-4-yl)-2-(1,3-dimethyl-1H-pyrazol-4-yl)benzo[d]thiazole-6-carboxamide] the same measures were 124% and 8%.
Turning to `Cc1cncc(-c2nc3ccc(C(=O)NC4CCCC4)cc3s2)c1` [Example 43, N-cyclopentyl-2-(5-methylpyridin-3-yl)benzo[d]thiazole-6-carboxamide], the activation at 30 µM in experiment [3] amounted to 68%.
The same measure, in the same setting: the value for `COc1ccc(CNC(=O)c2ccc3nc(-c4cncc(C)c4)sc3c2)cc1` [Example 33, N-(4-methoxybenzyl)-2-(5-methylpyridin-3-yl)benzo[d]thiazole-6-carboxamide] was 82%; that for `O=C(N[C@H]1CCOc2ccccc21)c1ccc2nc(-c3cncc(Cl)c3)sc2c1` [Example 53, (S)-2-(5-chloropyridin-3-yl)-N-(chroman-4-yl)benzo[d]thiazole-6-carboxamide] was 46%.
Same read-out and setting: under `Cc1cncc(-c2nc3ccc(C(=O)N[C@H]4CCc5ccccc54)cc3s2)c1` [Example 37, (S)-N-(2,3-dihydro-1H-inden-1-yl)-2-(5-methylpyridin-3-yl)benzo[d]thiazole-6-carboxamide] stands 57%.
For `Cc1cc(-c2nc3ccc(C(=O)N[C@H]4CCOc5ccccc54)cc3s2)ccn1` [Example 56, (S)-N-(chroman-4-yl)-2-(2-methylpyridin-4-yl)benzo[d]thiazole-6-carboxamide], the activation at 30 µM in experiment [1] was determined as 107%. The activity at 10 µM in experiment [2] stood at 10%.
The matching figures for `O=C(N[C@H]1CCOc2ccccc21)c1ccc2nc(-c3cncc(C(F)F)c3)sc2c1` [Example 63, (S)-N-(chroman-4-yl)-2-(5-(difluoromethyl)pyridin-3-yl)benzo[d]thiazole-6-carboxamide]: 110% and 16%.
For `Cc1nn(C)c(C)c1-c1nc2ccc(C(=O)N[C@H]3CCOc4ccccc43)cc2s1` [Example 59, (S)-N-(chroman-4-yl)-2-(1,3,5-trimethyl-1H-pyrazol-4-yl)benzo[d]thiazoIe-6-carboxamide] the same measures were 77% and 20%.
For `Cc1cncc(-c2nc3ccc(C(=O)N[C@@H]4CCc5ccccc54)cc3s2)c1` [Example 38, (R)-N-(2,3-dihydro-1H-inden-1-yl)-2-(5-methylpyridin-3-yl)benzo[d]thiazole-6-carboxamide], the activation at 30 µM in experiment [3] came out at 32%.
In the case of `O=C(N[C@H]1CCOc2ccccc21)c1ccc2nc(-c3cncc(C4CC4)c3)sc2c1` [Example 48, (S)-N-(chroman-4-yl)-2-(5-cyclopropylpyridin-3-yl)benzo[d]thiazole-6-carboxamide], the activation at 30 µM in experiment [1] amounted to 135%. Also, in experiment [2], the activity at 10 µM is 14%.
For `O=C(N[C@H]1CCOc2ccccc21)c1ccc2nc(-c3cncc(C(F)(F)F)c3)sc2c1` [Example 47, (S)-N-(chroman-4-yl)-2-(5-(trifluoromethyl)pyridin-3-yl)benzo[d]thiazole-6-carboxamide] the same measures were 102% and 12%.
Take `Cc1cncc(-c2nc3ccc(C(=O)NCc4cccc(F)c4)cc3s2)c1` [Example 35, N-(3-fluorobenzyl)-2-(5-methylpyridin-3-yl)benzo[d]thiazole-6-carboxamide]: in experiment [3], the activation at 30 µM came to 36%.
The same measure, in the same setting: under `Cc1cncc(-c2nc3ccc(C(=O)N[C@@H]4c5ccccc5C[C@@H]4O)cc3s2)c1` [Example 39, N-((1R,2S)-2-hydroxy-2,3-dihydro-1H-inden-1-yl)-2-(5-methylpyridin-3-yl)benzo[d]thiazole-6-carboxamide] stands 35%.
`COc1cccc(CNC(=O)c2ccc3nc(-c4ccc(C)nc4)sc3c2)c1` [Example 16, N-(3-methoxybenzyl)-2-(6-methylpyridin-3-yl)benzo[d]thiazole-6-carboxamide] yielded an activation at 30 µM in experiment [1] of 64%.
The same measure, in the same setting: the value for `Cc1ccc(-c2nc3ccc(C(=O)N[C@@H]4c5ccccc5C[C@H]4O)cc3s2)cn1` [Example 21, N-((1R,2R)-2-hydroxy-2,3-dihydro-1H-inden-1-yl)-2-(6-methylpyridin-3-yl)benzo[d]thiazole-6-carboxamide] was 193%; that for `Cc1cncc(-c2nc3ccc(C(=O)N[C@@H]4c5ccccc5C[C@H]4O)cc3s2)c1` [Example 42, N-((1R,2R)-2-hydroxy-2,3-dihydro-1H-inden-1-yl)-2-(5-methylpyridin-3-yl)benzo[d]thiazole-6-carboxamide] was 138%; that for `Cn1cc(-c2nc3ccc(C(=O)N[C@H]4CCOc5ccccc54)cc3s2)cn1` [Example 57, (S)-N-(chroman-4-yl)-2-(1-methyl-1H-pyrazol-4-yl)benzo[d]thiazole-6-carboxamide] was 100%.
The same measure, in the same setting: the value for `Cc1ccc(-c2nc3ccc(C(=O)NCc4ccccc4)cc3s2)cn1` [Example 10, N-benzyl-2-(6-methylpyridin-3-yl)benzo[d]thiazole-6-carboxamide] was 78%.

(Values after patent US20240150339A1, “Compounds and Their Use as PDE4 Activators” (Mironid Limited, priority 2021, published 2024).)
